Measured values as given in patent publication US20110166221A1, “USE OF DRONEDARONE FOR THE PREPARATION OF A MEDICAMENT FOR USE IN THE PREVENTION OF CARDIOVERSION” (SANOFI-AVENTIS, priority 2008, published 2011).
Where a name gives a salt, the structure may show the parent alone.

System: patients with a history of atrial fibrillation or atrial flutter
Assay: prospective, multinational, double-blind, randomized, multi-center, placebo-controlled, parallel group trial for the prevention of cardioversion
Assay type: in vivo, human
Method: Efficacy of dronedarone and its pharmaceutically acceptable salts versus placebo for the prevention of cardioversion was provided via dronedarone hydrochloride during a prospective, multinational, double-blind, randomized, multi-center, placebo-controlled, parallel group trial.
Patients must have a history of atrial fibrillation or atrial flutter and/or may be in normal sinus rhythm or in atrial fibrillation or flutter at the time of recruitment.
Recruitment of patients was conducted taking into account the following inclusion criteria:
• 1) One of the following risk factors had to be present: • age equal to or greater than 70 years, • hypertension (taking antihypertensives of at least two different classes), • diabetes, • history of cerebral stroke (transient ischemic event or completed cerebral stroke) or of systemic embolism, • left atrial diameter greater than or equal to 50 mm measured by echocardiography, • left ventricular ejection fraction less than 40%, measured by two-dimensional echography; • or • age equal to or above 70, or even above 75, possibly combined with at least one of the risk factors below: • hypertension (taking antihypertensives of at least two different classes), • diabetes, • history of cerebral stroke (transient ischemic event or completed cerebral stroke) or of systemic embolism, • left atrial diameter greater than or equal to 50 mm measured by echocardiography, • left ventricular ejection fraction less than 40%, measured by two-dimensional echography; • 2) availability of one electrocardiogram within the last six months, showing that the patients was or is in atrial fibrillation/flutter, • 3) availability of one electrocardiogram within the last six months, showing that the patients was or is in sinus rhythm.
Study drug treatment units (placebo or dronedarone hydrochloride corresponding to 400 mg of base) were such that each patient took one tablet in the morning during or shortly after breakfast and one tablet in the evening during or shortly after dinner.
The treatment duration depended on the time of recruitment of each patient in the trial and could be comprised from 12 months to 30 months.
Results were calculated using non-parametric Kaplan-Meier estimate.
Cox's proportional hazard model was used to estimate the hazard ratio also called relative risk.
Relative risk (RR) is the ratio between the risk of having a cardioversion for patients treated with dronedarone and the risk of having a cardioversion for patients treated with placebo.
Percentage of decrease of an event is calculated as follow: […]

## CCCCc1oc2ccc(NS(C)(=O)=O)cc2c1C(=O)c1ccc(OCCCN(CCCC)CCCC)cc1 [dronedarone hydrochloride, 2-n-butyl-3-[4-(3-di-n-butylaminopropoxy)benzoyl]-5-methylsulfonamido-benzofuran]
2301 of 4628 patients treated, 400 mg of base twice a day with meals, 12 to 30 months, placebo group 481 events
  events (cardioversion) registered: 339
Cox's proportional hazard model, 400 mg of base twice a day, 12 to 30 months, p<0.001
  Calculated relative risk (hazard ratio) of having a cardioversion versus placebo: 0.68
on-study period 12-30 months
  time course of effect, Kaplan Meier cumulative incidence from randomization to first cardioversion (FIG. 1): occurred early and increased over time
x=1-RR versus placebo, p<0.001
  decrease of electrical cardioversion: 32%
